Measured values from patent US20050109704A1, “Potable water delivery system with disinfection and residual discharge unit and method” (Pure H2O Bio-Technologies, Inc., priority 2003, published 2005).
Values joined by “and” are separate entries in the source; they are usually repeats but may differ in a detail not shown here. Equal values may be shown once.

Key:
[1] = test system: E. coli; assay: Iodine Disinfection of E. coli; type: cell-based, Escherichia coli; conditions: ambient (˜23° C.); for Raw counts, Average / Raw counts, Treated Rep.: undiluted/10 mL analyzed
Excerpt: (§1) At CT values of 50, the Log 10 reductions were greater than 8.0. CT is a common measurement unit referring to concentration in parts per million multiplied by time (in minutes). CFU is known as colony forming units per milliliter. […] See references: Block, S. S., 1977. Disinfection, Sterilization and Preservation. Lea & Febiger, Philadelphia. 2nd edition.

[2] = test system: E. faecalis; assay: Iodine Disinfection of E. faecalis; type: cell-based, Enterococcus faecalis; conditions: ambient (˜23° C.)
Excerpt: as §1

[3] = test system: P. aeruginosa; assay: Iodine Disinfection of P. aeruginosa; type: cell-based, Pseudomonas aeruginosa; conditions: ambient (˜23° C.); for Raw counts, Average / Raw counts, Treated Rep.: undiluted/10 mL analyzed
Excerpt: as §1

[4] = test system: Escherichia coli, Pseudomonas aeruginosa and, Enterococcus faecalis; assay: Iodine disinfection of bacteria, summary by CT value; type: cell-based; conditions: CT values of 50 (ppm x min)
Excerpt: as §1

[5] = test system: waterborne microbial contamination; conditions: 3-4 ppm for 12 min at 24° C. (CT value of about 48); cited from earlier work
[6] = 5 mg/L 5 min, undiluted/10 mL analyzed
[7] = 5 mg/L 10 min, undiluted/10 mL analyzed
[8] = 15 mg/L 5 min, undiluted/10 mL analyzed

II
<0.1 cfu/mL: cfu/mL, Average ([1]; 5 mg/L 10 min) | cfu/mL, Average ([1]; 5 mg/L 15 min) | cfu/mL, Average ([1]; 15 mg/L 5 min) | cfu/mL, Average ([2]; 5 mg/L 10 min) | cfu/mL, Average ([2]; 5 mg/L 15 min) | cfu/mL, Average ([2]; 15 mg/L 5 min) | cfu/mL, Average ([3]; 5 mg/L 10 min) | cfu/mL, Average ([3]; 5 mg/L 15 min) | cfu/mL, Average ([3]; 15 mg/L 5 min)
>7.9 Log10: Log10 removal ([3]; 5 mg/L 10 min) | Log10 removal ([3]; 5 mg/L 15 min) | Log10 removal ([3]; 15 mg/L 5 min)
6.2 Log10: Log10 removal ([2]; 5 mg/L 5 min)
1.7 × 10^1 cfu/mL: cfu/mL, Average ([1]; 5 mg/L 5 min) | cfu/mL, Average ([3]; 5 mg/L 5 min)
0: Raw counts, Average ([1]; 5 mg/L 10 min) | Raw counts, Treated Rep. ([1]; 5 mg/L 10 min) | Raw counts, Average ([1]; 5 mg/L 15 min) | Raw counts, Treated Rep. ([1]; 5 mg/L 15 min) | Raw counts, Average ([1]; 15 mg/L 5 min) | Raw counts, Treated Rep. ([1]; 15 mg/L 5 min) | Raw counts, Average [2, 7] | Raw counts, Treated Rep. [2, 7] | Raw counts, Average ([2]; 5 mg/L 15 min) | Raw counts, Treated Rep. ([2]; 5 mg/L 15 min) | Raw counts, Average [2, 8] | Raw counts, Treated Rep. [2, 8] | Raw counts, Average ([3]; 5 mg/L 10 min) | Raw counts, Treated Rep. ([3]; 5 mg/L 10 min) | Raw counts, Average ([3]; 5 mg/L 15 min) | Raw counts, Treated Rep. ([3]; 5 mg/L 15 min) | Raw counts, Average ([3]; 15 mg/L 5 min) | Raw counts, Treated Rep. ([3]; 15 mg/L 5 min)
39: Raw counts, Average [2, 6]
<−1.0 Log10/mL: Log10/mL ([1]; 5 mg/L 10 min) | Log10/mL ([1]; 5 mg/L 15 min) | Log10/mL ([1]; 15 mg/L 5 min) | Log10/mL ([2]; 5 mg/L 10 min) | Log10/mL ([2]; 5 mg/L 15 min) | Log10/mL ([2]; 15 mg/L 5 min) | Log10/mL ([3]; 5 mg/L 10 min) | Log10/mL ([3]; 5 mg/L 15 min) | Log10/mL ([3]; 15 mg/L 5 min)
5.7 Log10: Log10 removal ([1]; 5 mg/L 5 min) | Log10 removal ([3]; 5 mg/L 5 min)
>8.0 Log10: Log10 removal ([1]; 5 mg/L 10 min) | Log10 removal ([1]; 5 mg/L 15 min) | Log10 removal ([1]; 15 mg/L 5 min)
1.2 Log10/mL: Log10/mL ([1]; 5 mg/L 5 min) | Log10/mL ([3]; 5 mg/L 5 min)
≥ 7 logs: waterborne microbial contamination reduced [5]
49 and 38 and 31: Raw counts, Treated Rep. [2, 6]
greater than 8.0 Log 10: Log 10 reductions [4]
>7.8 Log10: Log10 removal ([2]; 5 mg/L 10 min) | Log10 removal ([2]; 5 mg/L 15 min) | Log10 removal ([2]; 15 mg/L 5 min)
3.9 × 10^0 cfu/mL: cfu/mL, Average ([2]; 5 mg/L 5 min)
171 and 168 and 185: Raw counts, Treated Rep. ([1]; 5 mg/L 5 min) | Raw counts, Treated Rep. ([3]; 5 mg/L 5 min)
0.6 Log10/mL: Log10/mL ([2]; 5 mg/L 5 min)
175: Raw counts, Average ([1]; 5 mg/L 5 min) | Raw counts, Average ([3]; 5 mg/L 5 min)
